Reference: patent publication US12533385B2, “Use of mulberry twig alkaloids in preparation of drug for treating polycystic ovarian syndrome” (priority 2022, dated 2026)

System: LZ+HFD-induced PCOS model
Experiment: Pharmacodynamic experiment of mulberry extract on LZ+HFD-induced PCOS model (Experimental Example 11, incl. expanded scale)
Type: in vivo, SD rats
Conditions: Met. 125 mg/kg/d, expanded scale 18 rats/group, monitored 10 days from day 10 of treatment; model group 97%, blank about 59%
Protocol: Test methods for the hormones are as follows: • E2: estradiol radioimmunoassay KIT—HTA Co., Ltd. (SFDA approval No.: 520033010); • LH: Iodine[^125I] Human Luteinizing Hormone Radioimmunoassay Kit (SFDA approval No.: 510950161); • PRL: Iodine[^125I] Prolactin Radioimmunoassay Kit (SFDA approval No.: S10950161); • T: Iodine[^125I] Testosterone Radioimmunoassay Kit (SFDA approval No.: S10940093); • ADP, GnRH, SHBG, and AMH in serum of each animal were tested using Elisa kits; • P: Progesterone Radioimmunoassay Kit—Union Medical & Pharmaceutical Technology (Tianjin) Co., Ltd. (SFDA approval No.: S10950202).
The drugs were formulated as same as in Experimental Example 10.
Eighteen 3-week-old female SD rats with good health and shiny fur were selected and adaptively fed for 3 days, and then randomized into a blank group, a model group, and a dosing group. After fed with high-fat diets for 3 weeks, the rats in the model group and the dosing group were administered with LZ (1 mg/kg/d) via gavage for 6 weeks, while being fed with HFD (high-fat diets (research diets D12492)), and the PCOS rat models were constructed. After the models were evaluated as success, the rats in the dosing group were administered according to the dosage and mode listed in the table, during which an equal amount of normal saline was given to the blank group and the model group. […]

SMILES: CN(C)C(=N)N=C(N)N [Met., Metformin]
- share of diestrus/metestrus in the estrous cycle: 74%
